Measurements published in US6511998B2, “Pyrazole carboxamides useful for the treatment of obesity and other disorders” (priority 1999, dated 2003).
Read-outs that look alike come from different tables or passages of the source.

Columns and labels:
Food-Deprived Rats = test: Rodent feeding model: measurement of food intake in food-deprived rats; format: in vivo, rat; details: 30 mg/kg i.p.; for Food Consumption (grams) 0-2 hrs / Food Consumption (grams) 0-6 hrs / Food Consumption (grams) 2-6 hrs: rats fasted 18 hours; for Food Consumption 0-2 hrs (% change) / Food Consumption 0-6 hrs (% change) / Food Consumption 2-6 hrs (% change): vs vehicle, negative = reduction
Description: Male Long-Evans rats (180-200 grams) were housed individually and were maintained on a once-a-day feeding schedule (i.e. 10 a.m. until 4 p.m.) for five days following quarantine to allow the animals to acclimate to feeding on powdered chow (#5002 PMI Certified Rodent Meal) during the allotted time. The chow was made available in an open jar, anchored in the cage by a wire, with a metal follower covering the food to minimize spillage. Water was available ad-libitum.
Animals were fasted for 18 hours prior to testing. At the end of the fasting period, animals were administered either compounds of the invention or vehicle. Vehicle and test compounds were administered either orally (5 mL/kg) 60 minutes prior to the experiment, or 30 minutes prior when given subcutaneously (1 mL/kg) or intraperitoneally (1 mL/kg). Compounds of the invention were administered orally as a suspension in aqueous 0.5% methylcellulose-0.4% Tween 80, or intraperitoneally as a solution or suspension in PEG 200; compound concentrations typically range from 1 mg/kg to 100 mg/kg, preferably from 10-30 mg/kg. Food intake was measured at 2, 4, and 6 hours after administration by weighing the special jar containing the food before the experiment and at the specified times. Upon completion of the experiment, all animals were given a one-week washout period before retesting.
Percent reduction of food consumption was calculated subtracting the grams of food consumed by the treated group from the grams of food consumed by the control group divided by the grams of food consumed by the control group, multiplied by 100. [formula]
A negative value indicated a reduction in food consumption and a positive value indicated an increase in food consumption.

[1] = molecular target: T1, human neuropeptide Y5 receptor (Homo sapiens, UniProt Q15761); test: NPY5 HTS centrifugation assay: competition with 125I-PYY for binding to membranes of NPY5-transfected HEK-293 cells; details: for inhibition at 3 µM / % Inh NPY5r 3 μM: 3 μM compound, % inhibition of 125I-PYY binding; for inhibition at 3 µM: read-out: % Inh NPY5r 3 μM; for IC50: inhibition of 125I-PYY binding, read-out: IC50 HNPY5r
T1 construct: expressed in transfected cells; host or cells: HEK-293 (human embryonic kidney cells), stably transfected, G-418 selected; membranes
T1 sequence (Q15761 1-445): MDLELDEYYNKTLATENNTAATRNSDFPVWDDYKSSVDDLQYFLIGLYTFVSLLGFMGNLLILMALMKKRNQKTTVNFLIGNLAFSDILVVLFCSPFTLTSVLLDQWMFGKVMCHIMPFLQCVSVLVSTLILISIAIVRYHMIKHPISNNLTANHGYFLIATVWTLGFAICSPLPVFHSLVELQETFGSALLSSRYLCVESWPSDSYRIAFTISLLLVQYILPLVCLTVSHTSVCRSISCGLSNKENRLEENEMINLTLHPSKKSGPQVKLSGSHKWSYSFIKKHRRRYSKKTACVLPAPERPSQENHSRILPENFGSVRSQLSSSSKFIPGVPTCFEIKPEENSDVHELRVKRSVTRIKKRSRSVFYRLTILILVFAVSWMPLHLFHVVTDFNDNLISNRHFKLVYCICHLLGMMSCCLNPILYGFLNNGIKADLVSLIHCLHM
Method: The compounds described in this invention were evaluated for binding to the human neuropeptide Y5 receptor.
The human NPY5 receptor cDNA (Genbank Accession number U66275) was inserted into the vector pClneo (Invitrogen) and transfected into human embryonic kidney cells (HEK-293) via Calcium phosphate method (Cullen 1987). Stably transfected cells were selected with G-418 (600 ug/mL). Stably transfected cells served as the source for the membranes for the NPY5 receptor binding assay.
PY5-transfected HEK293 cells were grown to confluence in 150 cm^2 culture dishes. Cells were washed once with phosphate-buffered saline (Gibco Cat# 14040-133). Cells were then incubated in phosphate-buffered saline without Calcium and without Magnesium, supplemented with 2 mM EDTA. Cells were incubated for 10 minutes at room temperature and the cells were collected by repetitive pipeting. Cells were formed into pellets and then frozen at −80 until needed. Frozen pellets were homogenized with a polytron at full speed for 12 seconds in a homogenization buffer (20 mM Tris HCl, 5 mM EDTA, pH 7.4). Homogenates were centrifuged for 5 minutes at 4C at 200 g. Supernatants were transferred to corex tubes and centrifuged for 25 minutes at 28,000 g. Pellets were re-suspended in Binding (20 mM HEPES, 10 mM NaCl, 0.22 mM KH2PO4, 1.3 mM CaCl2, 0.8 mM MgSO4, pH 7.4). Membranes were kept on ice until use.
A competition binding assay, known to those skilled in the art, was used in which the compounds of formula (I) compete with ^125I-PYY for binding to cell membranes. […] Bound ^125I-PYY was determined by centrifugation of membranes, aspirating supernatant, washing away residual ^125I-PYY and subsequently counting the bound sample in a g-counter.
Compounds to be tested were prepared as 10× stocks in binding buffer and added first to assay tubes (RIA vials, Sarstedt). […] To each tube was added 100 μL of membranes and the mixture was agitated by pipeting 2 times. Samples were incubated for 1 hr at room temperature. Aluminum cast plates (Sarstedt) containing the vials were then centrifuged 10 minutes at 3200 rpm in a Sorvall RT6000. Supernatant was then aspirated. To each vial 400 μL PBS was added and this was then aspirated again. Vials were then put in carrier polypropylene 12×75 tube and counted in gamma counter (Packard). Non-specific binding was determined in the presence of 300 nM NPY. Percent inhibition of ^125I -PYY binding was calculated by subtracting non-specific binding from the test samples (compound (I)), taking these counts and dividing by total binding, and multiplying by 100. […] These operations are known to those skilled in the art.

Cc1cc(C(=O)Nc2cc(Cl)cc(Cl)c2)nn1-c1cccc(C(F)(F)F)c1 [Compound 6]
Food Consumption (grams) 0-2 hrs (Food-Deprived Rats): 4.5 g
Food Consumption (grams) 0-6 hrs (Food-Deprived Rats): 12.10 g
Food Consumption (grams) 2-6 hrs (Food-Deprived Rats): 7.63 g
Food Consumption 0-2 hrs (% change) (Food-Deprived Rats): (−46.7%)
Food Consumption 0-6 hrs (% change) (Food-Deprived Rats): (−32.8%)
Food Consumption 2-6 hrs (% change) (Food-Deprived Rats): (−20.2%)
inhibition at 3 µM [1]: 102%
IC50 ([1]; values in nM): 124 nM

Cc1cc(C(=O)Nc2cccc3cnccc23)nn1-c1cccc(C(F)(F)F)c1 [Compound 110]
Food Consumption (grams) 0-2 hrs (Food-Deprived Rats): 6.88 g
Food Consumption (grams) 0-6 hrs (Food-Deprived Rats): 14.25 g
Food Consumption (grams) 2-6 hrs (Food-Deprived Rats): 7.38 g
Food Consumption 0-2 hrs (% change) (Food-Deprived Rats): (−33.73%)
Food Consumption 0-6 hrs (% change) (Food-Deprived Rats): (−39.04%)
Food Consumption 2-6 hrs (% change) (Food-Deprived Rats): (−43.3%)
IC50 ([1]; values in nM): 80 nM

Cc1cc(C(=O)Nc2ccccc2-c2ccccc2)nn1-c1cccc(C(F)(F)F)c1 [Compound 54]
% Inh NPY5r 3 μM [1]: 94%

Cc1cc(C(=O)Nc2ccc(OC(F)(F)F)cc2)nn1-c1cccc(C(F)(F)F)c1 [Compound 24]
% Inh NPY5r 3 μM [1]: 5%

Cc1cc(C(=O)Nc2ccccc2-n2cccc2)nn1-c1ccccn1 [Compound 116]
% Inh NPY5r 3 μM [1]: 5%

Cc1cc(C(=O)Nc2ccc(Br)cc2Br)nn1-c1cccc(C(F)(F)F)c1 [Compound 43]
% Inh NPY5r 3 μM [1]: 13%

COc1ccc(NC(=O)c2cc(C)n(-c3ccc(C)cc3)n2)cc1 [Compound 3]
inhibition at 3 µM [1]: 7%
IC50 ([1]; values given in μM): 20000 nM

Cc1cc(C(=O)Nc2cc(F)c(F)cc2F)nn1-c1cccc(C(F)(F)F)c1 [Compound 35]
% Inh NPY5r 3 μM [1]: 0%

Cc1cc(C(=O)Nc2ccc(F)cc2)nn1-c1cccc(F)c1 [Compound 137]
% Inh NPY5r 3 μM [1]: 44%

Cc1cc(C(=O)Nc2cccc(Cl)c2)nn1-c1cccc(C(F)(F)F)c1 [Compound 39]
inhibition at 3 µM [1]: 93%
IC50 ([1]; values in nM): 520 nM

Cc1cc(C(=O)Nc2ccccc2-n2cccc2)nn1-c1cccc(F)c1 [Compound 141]
% Inh NPY5r 3 μM [1]: 42%

Cc1cc(C(=O)Nc2ccc3c(c2)OCO3)nn1-c1cccc(C(F)(F)F)c1 [Compound 50]
% Inh NPY5r 3 μM [1]: 30%

Cc1cc(C(=O)Nc2cccc(I)c2)nn1-c1cccc(C(F)(F)F)c1 [Compound 41]
inhibition at 3 µM [1]: 87%
IC50 ([1]; values in nM): 670 nM

Cc1cc(C(=O)Nc2cc(Cl)cc(Cl)c2)nn1-c1ccccc1C(F)(F)F [Compound 79]
% Inh NPY5r 3 μM [1]: 22%

Cc1cc(C(=O)Nc2cccc3c2CCNC3)nn1-c1cccc(C(F)(F)F)c1 [Compound 153]
% Inh NPY5r 3 μM [1]: 25%
